In patent US20230181543A1, “TREATMENT OF CARM1-OVEREXPRESSING AND/OR ARID1A MUTANT CANCERS WITH IRE-1/XBP-1 INHIBITORS” (The Wistar Institute of Anatomy and Biology, priority 2020, published 2023):
“Also recorded” adds a separate entry of the source.

Tests used:
[1] = tested on: XBP-1; settings: B-I09 20 μM, 48 h (FIG. 3A)
Excerpt: (FIG. 3B) Dose response curve of B-I09 in wild-type and CARM1 knockout A1847 cells. (FIG. 3C) The expression of CARM1 in different HGSOC cell lines. (FIG. 3D) The IC50 of B-I09 in CARM1-low and high HGSOC cells.
Next, the inventors investigated whether the activated IRE-1-XBP-1 pathway is required for the survival of CARM1-high parental cells. […] To investigate whether the IRE-1-XBP-1 inhibition suppresses CARM1-high cells through inducing cell death, western blotting of apoptotic markers was performed. […] Therefore, to investigate whether lipid biosynthesis affects the selectivity of CARM1-high cells to inhibit the XBP-1 pathway, cells are treated with B-I09 to inhibit the XBP-1 pathway and rescued with control BSA or oleic acid (OA) (FIG. 4B), which is the upstream product for lipid biosynthesis (Yao et al., 2017).

[2] = tested on: A1847 cells; assay: Dose response of B-I09 in wild-type and CARM1 knockout A1847 cells; assay type: cell-based; settings: wild-type vs CARM1 knockout A1847 cells (FIG. 3B)
[3] = tested on: A1847 cells with or without CARM1 knockout; assay: Western blotting of apoptotic markers (cleaved PARP, cleaved lamin A); assay type: cell-based; settings: CARM1-high parental vs CARM1 knockout cells, B-I09 treatment
Excerpt: (§1) FIGS. 4A-C. […] (FIG. 4A) Western blotting of apoptotic markers in A1847 cells with or without CARM1 knockout treated with or without B-I09. (FIGS. 4B-C) Schematics (FIG. 4B) and dose response curves (FIG. 4C) of A1847 cells with or without CARM1 knockout treated with B-I09 and rescued with BSA or oleic acid (OA).
FIGS. 15A-F. IRE-1a-XBP-1 pathway is required for CARM1-expressing OvCa. (FIG. 15A) Colony formation assays of wildtype and CARM1 knockout A 1847 and PEO4 cells treated with IRE-1α inhibitor B-I09 or 4μ8c. […] (FIG. 15C) Western blotting of apoptotic markers cleaved PARP and cleaved Lamin A and loading control β-actin. […] (FIG. 15D) The CARM1 levels in a panel of High Grade Serous Ovarian Cancer (HGSOC) cell lines were examined by western blotting. CARM1 is highly expressed in PEO4, OSAHO and A1847 cell lines. (FIG. 15E) Survival curves of colony formation assays of the panel of HGSOC cell lines treated with B-I09. (FIG. 15F) Comparison of IC50 of CARM1-high and CARM1-low HGSOC cell lines under treatment of B-I09.

[4] = tested on: ARID1A mutant tumor; assay: ARID1A mutant tumor formation under B-I09; assay type: in vivo; settings: FIG. 39, 40
[5] = tested on: ARID1A-mutant OCCC PDX; assay: ARID1A-mutant OCCC PDX mice treated with B-I09; assay type: in vivo; settings: ARID1A-mutant OCCC PDX mice (FIG. 45)
[6] = B-I09 treatment with CD8 depletion; assay type: in vivo; settings: FIG. 44
[7] = tested on: CARM1-high tumors; assay: Orthotopic CARM1-high and CARM1-low PDX and A1847 xenograft mouse models; assay type: in vivo, mice; settings: CARM1-high vs CARM1-low PDX; wild-type vs CARM1 knockout A1847 xenograft
Excerpt: (FIG. 18A) Hematoxylin and eosin (HE) staining, and immunohistochemical staining with anti-CARM1 antibody in CARM1-low and CARM1-high PDX. (FIG. 18B) Confirmation of CARM1 expression levels in CARM1-low and -high PDXs by western blotting. A1847 and OVCAR3 cell lysates were used as positive control for CARM1-high and CARM1-low expression, respectively. (FIGS. 18C-D) Schematic of experimental design for PDX mouse model was shown. Mice with indicated orthotopic CARM1-high and CARM1-low PDXs were randomized into two groups and treated with vehicle control or B-I09. Tumor weight was measured as a representation for tumor burden at the end of the treatment. (FIGS. 18E-F) Schematic of experimental design for orthotopic injection A1847 xenograft was shown. Mice with indicated orthotopic injection of wild-type or CARM1 knockout A1847 cells were randomized into two groups and treated with vehicle control or B-I09. Tumor weight was measured as a representation for tumor burden at the end of the treatment. (FIG. 18G) Kaplan-Meier survival curves for indicated xenograft groups. P value was calculated by log rank test. (FIG. 18H) Immunohistochemistry for apoptotic marker cleaved caspase 3 and proliferation marker Ki67, histological scores (H-score) were calculated for three separate fields from five tumors from five individual mice from each of the indicated groups.

[8] = tested on: UPK10 cells; assay: Orthotopic UPK10 xenograft, B-I09 with PD-1 immune therapy; assay type: in vivo, B6 Mice; settings: B-I09 50 mg per kg, 5 weekdays per week i.p., with PD-1 10 mg per kg twice per week
Method: (FIG. 19A) Western blotting of CARM1 and loading control […]-actin in UPK10, […] and OVCAR3 cells. (FIG. 19B) Schematic of experimental design for orthotopic injection UPK10 xenograft was shown. B6 Mice with indicated orthotopic injection of UPK10 cells were randomized into four different treatment groups and treated with control vehicle, B-[…] (50 mg per kg, 5 weekdays per week by i.p.), PD-1 (10 mg per kg, twice per week) or a combination. (FIG. 19C) Tumor weight was measured as a representation for tumor burden at the end of the treatment. coefficient of drug interaction (CDI) was calculated. (FIG. 19D) Tumor infiltrated lymphocytes (TILs) was analyzed by flow cytometry. The percentage of CD4^+ T cell, CD8^+ T cell, B cell in […] cell and macrophage were shown.

[9] = tested on: hematological malignancies; settings: cited from earlier work
[10] = tested on: Arid1a flox/flox;(Gt)Rosa26Pik3ca*H1047R OCCC tumors; assay: Genetic OCCC mouse model (conditional inactivation of Arid1a, activation of Pik3ca)
[11] = biological target: EZH2 compared to EZH1 (Homo sapiens, UniProt Q15910); settings: cited from earlier work
Chain of EZH2 compared to EZH1 (Q15910 whole entry): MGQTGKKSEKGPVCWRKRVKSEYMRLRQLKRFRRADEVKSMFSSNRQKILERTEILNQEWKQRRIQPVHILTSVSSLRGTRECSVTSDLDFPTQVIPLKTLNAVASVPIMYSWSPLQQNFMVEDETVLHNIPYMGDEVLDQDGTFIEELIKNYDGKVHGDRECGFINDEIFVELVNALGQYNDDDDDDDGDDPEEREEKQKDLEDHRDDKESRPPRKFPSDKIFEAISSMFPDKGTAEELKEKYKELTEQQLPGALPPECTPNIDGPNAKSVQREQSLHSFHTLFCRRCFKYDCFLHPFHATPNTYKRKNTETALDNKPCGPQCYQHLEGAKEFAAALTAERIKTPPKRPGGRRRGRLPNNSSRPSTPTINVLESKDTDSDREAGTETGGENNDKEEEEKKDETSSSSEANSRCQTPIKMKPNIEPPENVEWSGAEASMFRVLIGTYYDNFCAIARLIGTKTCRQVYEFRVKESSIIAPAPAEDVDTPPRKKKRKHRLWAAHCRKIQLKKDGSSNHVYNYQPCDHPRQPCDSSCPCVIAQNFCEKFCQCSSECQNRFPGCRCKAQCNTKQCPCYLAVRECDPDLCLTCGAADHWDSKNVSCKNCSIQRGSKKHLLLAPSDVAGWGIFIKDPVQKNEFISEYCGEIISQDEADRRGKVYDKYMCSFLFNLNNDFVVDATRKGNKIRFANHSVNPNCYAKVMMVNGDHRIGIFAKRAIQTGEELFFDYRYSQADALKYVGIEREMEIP
Chain of EZH2 compared to EZH1 (O75530 whole entry partner): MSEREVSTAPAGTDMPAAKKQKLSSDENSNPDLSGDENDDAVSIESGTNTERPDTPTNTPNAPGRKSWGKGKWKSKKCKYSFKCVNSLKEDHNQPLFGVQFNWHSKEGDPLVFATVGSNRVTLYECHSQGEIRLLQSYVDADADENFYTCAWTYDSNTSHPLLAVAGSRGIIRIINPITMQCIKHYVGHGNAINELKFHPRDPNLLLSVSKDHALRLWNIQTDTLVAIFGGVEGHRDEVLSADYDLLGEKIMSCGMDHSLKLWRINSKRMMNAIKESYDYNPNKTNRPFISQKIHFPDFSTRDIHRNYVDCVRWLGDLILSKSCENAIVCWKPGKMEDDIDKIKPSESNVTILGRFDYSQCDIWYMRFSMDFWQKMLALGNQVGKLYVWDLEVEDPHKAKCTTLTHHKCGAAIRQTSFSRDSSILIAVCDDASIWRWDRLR
Chain of EZH2 compared to EZH1 (Q15022 whole entry partner): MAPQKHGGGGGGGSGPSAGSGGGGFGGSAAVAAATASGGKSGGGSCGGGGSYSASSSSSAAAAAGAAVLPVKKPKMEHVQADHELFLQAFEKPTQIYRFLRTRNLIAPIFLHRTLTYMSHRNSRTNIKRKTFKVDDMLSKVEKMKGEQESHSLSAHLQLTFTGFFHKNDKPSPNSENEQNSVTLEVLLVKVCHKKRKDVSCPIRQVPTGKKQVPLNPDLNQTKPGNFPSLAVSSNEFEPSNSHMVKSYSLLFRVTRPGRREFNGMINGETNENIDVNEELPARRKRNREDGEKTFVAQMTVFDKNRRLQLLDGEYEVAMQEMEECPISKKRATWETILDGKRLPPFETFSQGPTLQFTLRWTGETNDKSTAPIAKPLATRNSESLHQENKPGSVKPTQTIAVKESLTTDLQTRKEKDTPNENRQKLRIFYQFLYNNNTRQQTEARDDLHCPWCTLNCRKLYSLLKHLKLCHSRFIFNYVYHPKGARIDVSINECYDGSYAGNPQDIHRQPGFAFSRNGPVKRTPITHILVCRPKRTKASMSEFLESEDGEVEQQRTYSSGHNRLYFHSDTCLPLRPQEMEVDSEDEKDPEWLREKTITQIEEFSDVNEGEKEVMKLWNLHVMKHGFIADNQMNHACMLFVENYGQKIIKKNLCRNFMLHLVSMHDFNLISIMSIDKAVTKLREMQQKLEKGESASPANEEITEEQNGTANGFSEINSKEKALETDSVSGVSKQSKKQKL
Chain of EZH2 compared to EZH1 (Q09028 whole entry partner): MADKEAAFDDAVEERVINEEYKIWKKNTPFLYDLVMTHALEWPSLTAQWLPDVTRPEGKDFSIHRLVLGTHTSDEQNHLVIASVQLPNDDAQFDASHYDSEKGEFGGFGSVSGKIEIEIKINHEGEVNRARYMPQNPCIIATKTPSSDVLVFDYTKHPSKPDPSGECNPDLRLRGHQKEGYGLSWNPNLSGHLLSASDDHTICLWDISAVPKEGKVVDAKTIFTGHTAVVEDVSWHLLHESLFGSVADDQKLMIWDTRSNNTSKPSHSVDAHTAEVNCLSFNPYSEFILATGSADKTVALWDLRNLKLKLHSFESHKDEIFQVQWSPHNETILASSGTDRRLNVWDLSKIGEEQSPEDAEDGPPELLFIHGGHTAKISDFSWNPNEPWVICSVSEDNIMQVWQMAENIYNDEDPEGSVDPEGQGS

[12] = tested on: RMG1 cells; assay: Cisplatin and B-I09 combination in RMG1 wild-type and ARID1A knock-out cells; assay type: cell-based; settings: RMG1 wild-type vs RMG1 ARID1A knock-out cells (FIG. 11); preliminary
Excerpt: FIG. 11. […] IC50 of cisplatin in RMG1 wild-type compared to RMG1 ARID1A knock-out cells in combination with B-I09. Data from 3 replicates.
Resistance to cisplatin has been associated with an increase in ER stress-mediated cellular survival mechanisms in ovarian cancer (Avril et al., 2017; Lei et al., 2015; Xu et al., 2015). […] The inventors hypothesize that ER stress inhibition is synergistic with platinum-based chemotherapy in ARID1A-mutated OCCCs. To test this hypothesis, the inventors will treat ARID1A wild-type, ARID1A CRISPR-Cas9 knock-out, and ARID/A-mutant or wild-type OCCC cells with increasing concentrations of cisplatin or carboplatin. ER stress response induction will be analyzed by western blot and RT-qPCR analyzing the expression of ER stress response proteins such as IRE-1, XBP-1, PERK, ATF6 and BiP. They expect that platinum-based therapy-induces enhanced ER stress responses in ARID1A mutant/knock-out cells. ER stress response induction may sensitize them to treatment combination of platinum-based therapies and B-I09. […] The inventors will expand this analysis into a panel of ARID1A wild-type (such as RMG1, OVCA429 and KK) and mutant (such as TOV21G, OVTOKO, and OVISE) OCCC cell lines to further establish the efficacy of combination treatment of platinum-based therapy and B-I09. […]

[13] = tested on: A1847 cells with or without CARM1 knockout; assay: Oleic acid rescue of B-I09-treated cells; assay type: cell-based; settings: cells treated with B-I09, rescued with BSA or oleic acid (FIG. 4C); preliminary
Excerpt: as §1

SMILES: O=c1oc2c(C3OCCCO3)c(O)ccc2c2c1CNCC2 [B-I09]
- activation of XBP-1 / expression of active XBP-1s [1]: inhibits the activation of XBP-1; also recorded: decreasing the expression of active XBP-1s
- sensitivity to B-I09, dose response curve [2]: wild-type cells are significantly more sensitive to B-I09 compared with knockout cells
- induction of apoptosis (cleaved PARP, cleaved lamin A) [3]: specifically induces apoptosis in CARM1-high cells; also recorded: specifically induced apoptosis in wildtype CARM1-high cells; also recorded: selectively induced apoptosis in CARM1-high but not CARM1-low or CARM1 knockout HGSOC cells
- ARID1A mutant tumor formation [4]: selectively suppresses ARID1A mutant tumor formation
- tumor growth [5]: suppresses tumor growth
- effect of CD8 depletion on B-I09 treatment [6]: CD8 depletion does not affect B-I09 treatment
- sensitivity of tumors (tumor weight, survival) to B-I09 [7]: CARM1-high tumors are sensitive to IRE-1α-XBP-1 inhibition
- drug interaction on tumor weight (coefficient of drug interaction) [8]: synergizes with PD-1 immune therapy
- efficacy in hematological malignancies [9]: has been effective in treating hematological malignancies
- survival (Kaplan-Meier) ([10]; 50 mg/Kg B-I09, tumor bearing mice): enhances mouse survival
- tumor growth / progression (tumor weight) ([10]; 50 mg/Kg B-I09 for 3 weeks (5 days on/2 off)): reduces OCCC tumor growth in vivo; also recorded: suppresses tumor progression

SMILES: Cc1cc(C)c(CNC(=O)c2cc(-c3ccc(CN4CCOCC4)cc3)cc3c2cnn3C2CCCC2)c(=O)[nH]1 [EPZ005687]
- selectivity for EZH2 over EZH1 [11]: 50 fold

SMILES: N.N.[Cl][Pt][Cl] [cisplatin]
- IC50 of cisplatin in combination with B-I09 [12]: reduces the IC50 of cisplatin more effectively in RMG1 CRISPR/Cas9 KO cells compared to their wild-type parental control; also recorded: Loss of ARID1A promotes sensitivity to cisplatin and B-I09 combination

SMILES: CCCCCCCC/C=C\CCCCCCCC(=O)O [oleic acid]
- rescue from B-I09 inhibition of XBP-1 [13]: can rescue A1847 wild-type cells from the inhibition of XBP-1 but has no effect on CARM1 knockout cells
